From patent US20140120232A1, “ACID TASTE/ACID SMELL-REDUCING AGENT” (T. HASEGAWA CO., LTD., priority 2011, published 2014)

Assay: Sensory evaluation of yogurt containing the agent
Details: ten panels
Procedure: Sensory evaluation of each drink was carried out by ten panels. […] The piercing aroma characteristic to aldehydes is a characteristic aroma common to every aldehyde and refers to an irritant off-smell giving an image of deteriorated oils and fats, soap, metals, Houttuynia cordata, etc. The judgment of smell was performed by comparing the effects at different concentrations of the acid taste and/or acid smell-reducing agent, and a concentration giving the highest acid taste/acid smell quality was selected.
A yogurt base material as a control was prepared by mixing 100 parts by mass of commercially available plain yogurt (milk non-fat solids: 9.5%, milk fat component: 3.0%) with 0.1 parts by mass of acetic acid (glacial acetic acid: food additive, manufactured by Junsei Chemical Co., Ltd.) with stirring. To the resulting mixture was added (Z,Z)-4,7-tridecadienal as the acid taste and/or acid smell-reducing agent of the present invention in concentrations shown in the following Table 9 to give yogurt containing the agent, followed by sensory evaluation as in Example 1.

CCCCC/C=C\C/C=C\CCC=O [(Z,Z)-4,7-tridecadienal]
2: B: number of panels, acid taste/acid smell slightly strong and slightly cause irritation (0.02 ppt) | C: number of panels, acid taste/acid smell slightly unpleasant (0.1 ppt) | C: number of panels, acid taste/acid smell slightly unpleasant (0.5 ppt) | Flavor judgment: number of panels who judged acid taste/acid smell quality the highest (1 ppt) | C: number of panels, acid taste/acid smell slightly unpleasant (5 ppt) | C: number of panels, acid taste/acid smell slightly unpleasant (10 ppb) | N: number of panels, irritation of acid reduced to give a mild acid taste (10 ppb) | X: number of panels, acid taste reduced but piercing odor characteristic to aldehydes unpleasant (100 ppt)
10: A: number of panels, acid taste/acid smell extreme and cause irritation (0.005 ppt)
5: A: number of panels, acid taste/acid smell extreme and cause irritation (0.1 ppt)
4: A: number of panels, acid taste/acid smell extreme and cause irritation (0.2 ppt) | X: number of panels, acid taste reduced but piercing odor characteristic to aldehydes unpleasant (1 ppb) | Flavor judgment: number of panels who judged acid taste/acid smell quality the highest (5 ppt) | C: number of panels, acid taste/acid smell slightly unpleasant (20 ppt) | N: number of panels, irritation of acid reduced to give a mild acid taste (100 ppt) | N: number of panels, irritation of acid reduced to give a mild acid taste (500 ppt)
3: B: number of panels, acid taste/acid smell slightly strong and slightly cause irritation (0.1 ppt) | B: number of panels, acid taste/acid smell slightly strong and slightly cause irritation (0.2 ppt) | C: number of panels, acid taste/acid smell slightly unpleasant (0.2 ppt) | C: number of panels, acid taste/acid smell slightly unpleasant (1 ppb) | N: number of panels, irritation of acid reduced to give a mild acid taste (1 ppb) | C: number of panels, acid taste/acid smell slightly unpleasant (1 ppt) | Flavor judgment: number of panels who judged acid taste/acid smell quality the highest (20 ppt) | C: number of panels, acid taste/acid smell slightly unpleasant (100 ppt) | C: number of panels, acid taste/acid smell slightly unpleasant (500 ppt) | X: number of panels, acid taste reduced but piercing odor characteristic to aldehydes unpleasant (500 ppt)
1: A: number of panels, acid taste/acid smell extreme and cause irritation (0.5 ppt) | B: number of panels, acid taste/acid smell slightly strong and slightly cause irritation (0.5 ppt) | Flavor judgment: number of panels who judged acid taste/acid smell quality the highest (0.5 ppt) | B: number of panels, acid taste/acid smell slightly strong and slightly cause irritation (1 ppt) | C: number of panels, acid taste/acid smell slightly unpleasant (50 ppb) | N: number of panels, irritation of acid reduced to give a mild acid taste (50 ppb) | B: number of panels, acid taste/acid smell slightly strong and slightly cause irritation (100 ppt)
8: A: number of panels, acid taste/acid smell extreme and cause irritation (0.02 ppt) | N: number of panels, irritation of acid reduced to give a mild acid taste (5 ppt) | X: number of panels, acid taste reduced but piercing odor characteristic to aldehydes unpleasant (50 ppb)
6: N: number of panels, irritation of acid reduced to give a mild acid taste (0.5 ppt) | N: number of panels, irritation of acid reduced to give a mild acid taste (1 ppt) | X: number of panels, acid taste reduced but piercing odor characteristic to aldehydes unpleasant (10 ppb) | N: number of panels, irritation of acid reduced to give a mild acid taste (20 ppt)
0: B: number of panels, acid taste/acid smell slightly strong and slightly cause irritation (0.005 ppt) | C: number of panels, acid taste/acid smell slightly unpleasant (0.005 ppt) | Flavor judgment: number of panels who judged acid taste/acid smell quality the highest (0.005 ppt) | N: number of panels, irritation of acid reduced to give a mild acid taste (0.005 ppt) | X: number of panels, acid taste reduced but piercing odor characteristic to aldehydes unpleasant (0.005 ppt) | C: number of panels, acid taste/acid smell slightly unpleasant (0.02 ppt) | Flavor judgment: number of panels who judged acid taste/acid smell quality the highest (0.02 ppt) | N: number of panels, irritation of acid reduced to give a mild acid taste (0.02 ppt) | X: number of panels, acid taste reduced but piercing odor characteristic to aldehydes unpleasant (0.02 ppt) | Flavor judgment: number of panels who judged acid taste/acid smell quality the highest (0.1 ppt) | N: number of panels, irritation of acid reduced to give a mild acid taste (0.1 ppt) | X: number of panels, acid taste reduced but piercing odor characteristic to aldehydes unpleasant (0.1 ppt) | Flavor judgment: number of panels who judged acid taste/acid smell quality the highest (0.2 ppt) | N: number of panels, irritation of acid reduced to give a mild acid taste (0.2 ppt) | X: number of panels, acid taste reduced but piercing odor characteristic to aldehydes unpleasant (0.2 ppt) | X: number of panels, acid taste reduced but piercing odor characteristic to aldehydes unpleasant (0.5 ppt) | A: number of panels, acid taste/acid smell extreme and cause irritation (1 ppb) | B: number of panels, acid taste/acid smell slightly strong and slightly cause irritation (1 ppb) | Flavor judgment: number of panels who judged acid taste/acid smell quality the highest (1 ppb) | A: number of panels, acid taste/acid smell extreme and cause irritation (1 ppt) | X: number of panels, acid taste reduced but piercing odor characteristic to aldehydes unpleasant (1 ppt) | A: number of panels, acid taste/acid smell extreme and cause irritation (5 ppt) | B: number of panels, acid taste/acid smell slightly strong and slightly cause irritation (5 ppt) | X: number of panels, acid taste reduced but piercing odor characteristic to aldehydes unpleasant (5 ppt) | A: number of panels, acid taste/acid smell extreme and cause irritation (10 ppb) | B: number of panels, acid taste/acid smell slightly strong and slightly cause irritation (10 ppb) | Flavor judgment: number of panels who judged acid taste/acid smell quality the highest (10 ppb) | A: number of panels, acid taste/acid smell extreme and cause irritation (20 ppt) | B: number of panels, acid taste/acid smell slightly strong and slightly cause irritation (20 ppt) | X: number of panels, acid taste reduced but piercing odor characteristic to aldehydes unpleasant (20 ppt) | A: number of panels, acid taste/acid smell extreme and cause irritation (50 ppb) | B: number of panels, acid taste/acid smell slightly strong and slightly cause irritation (50 ppb) | Flavor judgment: number of panels who judged acid taste/acid smell quality the highest (50 ppb) | A: number of panels, acid taste/acid smell extreme and cause irritation (100 ppt) | Flavor judgment: number of panels who judged acid taste/acid smell quality the highest (100 ppt) | A: number of panels, acid taste/acid smell extreme and cause irritation (500 ppt) | B: number of panels, acid taste/acid smell slightly strong and slightly cause irritation (500 ppt) | Flavor judgment: number of panels who judged acid taste/acid smell quality the highest (500 ppt)
